The record followed here is patent publication US20250235484A1, “METHODS FOR MAKING EXTRACELLULAR VESICLES, AND COMPOSITIONS AND METHODS OF USE THEREOF” (EVIA LIFE SCIENCES INC., priority 2021, published 2025).

“Also recorded” adds a separate entry of the source.

Test [1] relates to Human primary keratinocytes. Briefly: Extracellular vesicle secretion by cultured keratinocytes, Nanosight analysis of culture supernatant. Conditions: compared with normal KC-EVs / keratinocytes without inhibitors. Format: cell-based. On the procedure:
(§1) Human primary keratinocytes were cultured in EpiLife™ medium with or without Y or Y+A supplementation according to the schedule below, and analyzed for extracellular vesicle secretion. 10 μM Y-27632 (Wako) and 0.5 μM A-83-01 (Wako) was used. Collection media was serum-free EpiLife™ medium without inhibitors. Thus, depending on the experiment, or stage of the experiment, human epidermal keratinocytes were cultured in serum free media such as EpiLife™ Medium, without or without small molecule inhibitor(s), namely, 10 μM Y-27632 (Wako) alone, or 10 μM Y-27632 plus 0.5 μM A-83-01 (Wako).

The subject of test [2] is Human primary keratinocytes. As to the kind of experiment: Long-term culture of keratinocytes: proliferation, morphology, cell condition. Type of test: cell-based. On the procedure: as §1, with “(Wako). [table] Long-term culture of keratinocytes was carried out by adding low molecular weight compounds Y and Y+A.” for “(Wako).”

For `CC(N)[C@H]1CC[C@H](C(=O)Nc2ccncc2)CC1` (mixture of isomers) [Y, (+/−)-trans-N-(4-Pyridyl)-4-(1-aminoethyl)-cyclohexanecarboxamide], in test [1], the “amount of EVs secreted” value is on record as “increased; also recorded: larger number”. Further, the cell proliferation entry in test [2] (compared with culturing normal cells without Y, 10 μM Y-27632) is “increased; also recorded: enhanced”. Also, in test [2] (long-term culture, micrographs), the “cell growth, morphology and cell condition” value was “good cell growth, and good morphology; also recorded: cell morphology was the best”.
